From publication PMC6357863, “Dithiocarbamate-inspired side chain stapling chemistry for peptide drug design” (Chemical Science, 2018) come the findings set out here.

Bounds are passed on as bounds.

Tested on in the first series: not listed separately
The series is described as follows: circular dichroism. To be noted: phosphate buffer (PB); pH 7.2; 20 °C; 10-50 uM.
On to `CC(=O)N[C@H](C(=O)N[C@@H](CO)C(=O)N[C@@H](Cc1ccccc1)C(=O)N[C@@H](C)C(=O)N[C@@H](CCC(=O)O)C(=O)N[C@@H](Cc1ccc(O)cc1)C(=O)N[C@@H](Cc1c[nH]c2ccccc12)C(=O)N[C@H]1CCCCNC(=S)SC[C@@H](C(N)=O)NC(=O)[C@H](CO)NC(=O)[C@H](CC(C)C)NC(=O)[C@H](CC(C)C)NC1=O)[C@@H](C)O`, for which the helicity came out at 43.3%.

Consider `CC(=O)N[C@H](C(=O)N[C@@H](CO)C(=O)N[C@@H](Cc1ccccc1)C(=O)N[C@@H](C)C(=O)N[C@H]1CSC(=S)NCCCC[C@@H](C(=O)N[C@@H](CC(C)C)C(=O)N[C@@H](CO)C(=O)N2CCC[C@H]2C(N)=O)NC(=O)[C@H](CC(N)=O)NC(=O)[C@H](Cc2c[nH]c3ccccc23)NC(=O)[C@H](Cc2ccc(O)cc2)NC1=O)[C@@H](C)O`, for which the helicity is 9.58%.

On to `CC(=O)N[C@H](C(=O)N[C@@H](CO)C(=O)N[C@@H](Cc1ccccc1)C(=O)N[C@@H](C)C(=O)N[C@H]1CCCCNC(=S)SC[C@@H](C(=O)N[C@@H](CC(C)C)C(=O)N[C@@H](CO)C(=O)N2CCC[C@H]2C(N)=O)NC(=O)[C@H](CC(N)=O)NC(=O)[C@H](Cc2c[nH]c3ccccc23)NC(=O)[C@H](Cc2ccc(O)cc2)NC1=O)[C@@H](C)O`, for which the helicity came to 6.88%.

In the case of `CC(=O)N[C@H]1CSC(=S)NCCCC[C@@H](C(=O)N[C@@H](Cc2ccc(O)cc2)C(=O)N[C@@H](Cc2c[nH]c3ccccc23)C(=O)N[C@@H](CC(N)=O)C(=O)N[C@@H](CC(C)C)C(=O)N[C@@H](CC(C)C)C(=O)N[C@@H](CO)C(=O)N2CCC[C@H]2C(N)=O)NC(=O)[C@H](C)NC(=O)[C@H](Cc2ccccc2)NC(=O)[C@H](CO)NC1=O`, the helicity is 8.38%.

For `CC(=O)N[C@H](C(=O)N[C@@H](CO)C(=O)N[C@@H](Cc1ccccc1)C(=O)N[C@H]1CSC(=S)NCCCC[C@@H](C(=O)N[C@@H](CC(C)C)C(=O)N[C@@H](CC(C)C)C(=O)N[C@@H](CO)C(=O)N2CCC[C@H]2C(N)=O)NC(=O)[C@H](Cc2c[nH]c3ccccc23)NC(=O)[C@H](Cc2ccc(O)cc2)NC(=O)[C@H](CCC(=O)O)NC1=O)[C@@H](C)O`, the helicity came out at 9.15%.

The molecule `CC(=O)N[C@H](C(=O)N[C@H]1CSC(=S)NCCCC[C@@H](C(=O)N[C@@H](Cc2c[nH]c3ccccc23)C(=O)N[C@@H](CC(N)=O)C(=O)N[C@@H](CC(C)C)C(=O)N[C@@H](CC(C)C)C(=O)N[C@@H](CO)C(=O)N2CCC[C@H]2C(N)=O)NC(=O)[C@H](CCC(=O)O)NC(=O)[C@H](C)NC(=O)[C@H](Cc2ccccc2)NC1=O)[C@@H](C)O` came in with a helicity of 4.81%.

Turning to `CC(=O)N[C@H](C(=O)N[C@H]1CCCCNC(=S)SC[C@@H](C(=O)N[C@@H](Cc2c[nH]c3ccccc23)C(=O)N[C@@H](CC(N)=O)C(=O)N[C@@H](CC(C)C)C(=O)N[C@@H](CC(C)C)C(=O)N[C@@H](CO)C(=O)N2CCC[C@H]2C(N)=O)NC(=O)[C@H](CCC(=O)O)NC(=O)[C@H](C)NC(=O)[C@H](Cc2ccccc2)NC1=O)[C@@H](C)O`, the helicity was found to be 15.3%.

As to `CC(=O)N[C@H](C(=O)N[C@@H](CO)C(=O)N[C@@H](Cc1ccccc1)C(=O)N[C@H]1CCCCNC(=S)SC[C@@H](C(=O)N[C@@H](CC(C)C)C(=O)N[C@@H](CC(C)C)C(=O)N[C@@H](CO)C(=O)N2CCC[C@H]2C(N)=O)NC(=O)[C@H](Cc2c[nH]c3ccccc23)NC(=O)[C@H](Cc2ccc(O)cc2)NC(=O)[C@H](CCC(=O)O)NC1=O)[C@@H](C)O`, the helicity amounted to 39.3%.

As for `CC(=O)N[C@H](C(=O)N[C@@H](CO)C(=O)N[C@@H](Cc1ccccc1)C(=O)N[C@@H](C)C(=O)N[C@@H](CCC(=O)O)C(=O)N[C@@H](Cc1ccc(O)cc1)C(=O)N[C@@H](Cc1c[nH]c2ccccc12)C(=O)N[C@H]1CSC(=S)NCCCC[C@@H](C(N)=O)NC(=O)[C@H](CO)NC(=O)[C@H](CC(C)C)NC(=O)[C@H](CC(C)C)NC1=O)[C@@H](C)O`, the helicity turned out to be 0.23%.

Tested on in the next series: not given
Assay: not given
To be noted: the molecule shown is the open-chain precursor; 21-membered ring.
In the case of `C=C(NC(=O)[C@H](CO)NC(=O)[C@H](CC(C)C)NC(=O)[C@H](CC(C)C)NC(=O)[C@H](CCCCNC(=S)S)NC(=O)[C@H](Cc1c[nH]c2ccccc12)NC(=O)[C@H](Cc1ccc(O)cc1)NC(=O)[C@H](CCC(=O)O)NC(=O)[C@H](C)NC(=O)[C@H](Cc1ccccc1)NC(=O)[C@H](CO)NC(=O)[C@@H](NC(C)=O)[C@@H](C)O)C(N)=O` [Ac-Thr-Ser-Phe-Ala-Glu-Tyr-Trp-Lys-Leu-Leu-Ser-Dha-NH2], the ring closure, isolated yield was 45%.

Take `C=C(NC(=O)[C@H](Cc1c[nH]c2ccccc12)NC(=O)[C@H](Cc1ccc(O)cc1)NC(=O)[C@H](CCC(=O)O)NC(=O)[C@H](C)NC(=O)[C@H](Cc1ccccc1)NC(=O)[C@H](CO)NC(=O)[C@@H](NC(C)=O)[C@@H](C)O)C(=O)N[C@@H](CC(C)C)C(=O)N[C@@H](CC(C)C)C(=O)N[C@@H](CO)C(=O)N[C@@H](CCCCNC(=S)S)C(N)=O` [Ac-Thr-Ser-Phe-Ala-Glu-Tyr-Trp-Dha-Leu-Leu-Ser-Lys-NH2]: the ring closure, isolated yield was 38%.

Tested on in another series: not listed separately
As to the kind of experiment: Circular dichroism spectroscopy, helical content. To be noted: CD, PB pH 7.2, 10-50 μM peptide, 20 °C. In kind it is physicochemical. On the procedure:
Circular Dichroism (CD) Spectroscopy.
(§1) from 10-50 μM. […] The spectra were […]
In the case of Ac-TSFAEYWNLLSP-NH2 [PMI-0], the “α-Helix (%)” value is 9.77%.

The target of a further series is cathepsin G (Homo sapiens, UniProt P08311).
cathepsin G, sequence (P08311 21-255, species assumed): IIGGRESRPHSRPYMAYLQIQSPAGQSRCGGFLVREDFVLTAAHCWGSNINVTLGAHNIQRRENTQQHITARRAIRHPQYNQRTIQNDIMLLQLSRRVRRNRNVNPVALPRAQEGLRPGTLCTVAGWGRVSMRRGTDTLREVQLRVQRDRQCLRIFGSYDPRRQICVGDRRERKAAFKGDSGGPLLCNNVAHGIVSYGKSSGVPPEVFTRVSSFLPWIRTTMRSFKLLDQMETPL
Assay: not given
As to conditions: 100 μM peptide, cell culture medium (RPMI 1640), 25 μg/ml cathepsin G, room temperature, RP-HPLC and ESI-MS. On the procedure:
and three independent experiments were performed.
Fluorescence polarization (FP).
As an additional positive control, we
Tecan Infinite M1000 plate reader. […]
additional incubation for 64 hours.
Circular Dichroism (CD) Spectroscopy. […]
as §1
of each peptide was calculated as reported previously. 12
Stability in GSH. […] RP-
Take Ac-TSFAEYWNLLSP-NH2 [PMI-0]: the “time to full degradation by cathepsin G” value is on record as at most 30 min.

Tested on in the next series: not listed separately
The series is described as follows: Dithiocarbamate (DTC) stapling of unprotected peptides: Lys side-chain amine + CS2 (Et3N) gives Lys-NH-C(=S)S-, then intramolecular thia-Michael addition to dehydroalanine (Dha, made beforehand from Cys with 2,5-dibromohexanediamide and HPLC-purified). As to conditions: the molecule shown is the open-chain precursor, 21-membered ring, ethanol/Et3N/CS2 10:1:1 v/v.
On to `C=C(NC(=O)[C@H](Cc1ccccc1)NC(=O)[C@H](CO)NC(=O)[C@@H](NC(C)=O)[C@@H](C)O)C(=O)N[C@@H](CCC(=O)O)C(=O)N[C@@H](Cc1ccc(O)cc1)C(=O)N[C@@H](Cc1c[nH]c2ccccc12)C(=O)N[C@@H](CCCCNC(=S)S)C(=O)N[C@@H](CC(C)C)C(=O)N[C@@H](CC(C)C)C(=O)N[C@@H](CO)C(=O)N1CCC[C@H]1C(N)=O` [Ac-Thr-Ser-Phe-Dha-Glu-Tyr-Trp-Lys-Leu-Leu-Ser-Pro-NH2], for which the ring closure, isolated yield is 33%.

In the case of `C=C(NC(C)=O)C(=O)N[C@@H](CO)C(=O)N[C@@H](Cc1ccccc1)C(=O)N[C@@H](C)C(=O)N[C@@H](CCCCNC(=S)S)C(=O)N[C@@H](Cc1ccc(O)cc1)C(=O)N[C@@H](Cc1c[nH]c2ccccc12)C(=O)N[C@@H](CC(N)=O)C(=O)N[C@@H](CC(C)C)C(=O)N[C@@H](CC(C)C)C(=O)N[C@@H](CO)C(=O)N1CCC[C@H]1C(N)=O` [Ac-Dha-Ser-Phe-Ala-Lys-Tyr-Trp-Asn-Leu-Leu-Ser-Pro-NH2], the ring closure, isolated yield amounted to 37%.

In the case of `C=C(NC(=O)[C@H](C)NC(=O)[C@H](Cc1ccccc1)NC(=O)[C@H](CO)NC(=O)[C@@H](NC(C)=O)[C@@H](C)O)C(=O)N[C@@H](Cc1ccc(O)cc1)C(=O)N[C@@H](Cc1c[nH]c2ccccc12)C(=O)N[C@@H](CC(N)=O)C(=O)N[C@@H](CCCCNC(=S)S)C(=O)N[C@@H](CC(C)C)C(=O)N[C@@H](CO)C(=O)N1CCC[C@H]1C(N)=O` [Ac-Thr-Ser-Phe-Ala-Dha-Tyr-Trp-Asn-Lys-Leu-Ser-Pro-NH2], the ring closure, isolated yield was found to be 27%.

In the case of `C=C(NC(=O)[C@@H](NC(C)=O)[C@@H](C)O)C(=O)N[C@@H](Cc1ccccc1)C(=O)N[C@@H](C)C(=O)N[C@@H](CCC(=O)O)C(=O)N[C@@H](CCCCNC(=S)S)C(=O)N[C@@H](Cc1c[nH]c2ccccc12)C(=O)N[C@@H](CC(N)=O)C(=O)N[C@@H](CC(C)C)C(=O)N[C@@H](CC(C)C)C(=O)N[C@@H](CO)C(=O)N1CCC[C@H]1C(N)=O` [Ac-Thr-Dha-Phe-Ala-Glu-Lys-Trp-Asn-Leu-Leu-Ser-Pro-NH2], the ring closure, isolated yield worked out at 39%.

`C=C(NC(=O)[C@H](CC(N)=O)NC(=O)[C@H](Cc1c[nH]c2ccccc12)NC(=O)[C@H](Cc1ccc(O)cc1)NC(=O)[C@H](CCCCNC(=S)S)NC(=O)[C@H](C)NC(=O)[C@H](Cc1ccccc1)NC(=O)[C@H](CO)NC(=O)[C@@H](NC(C)=O)[C@@H](C)O)C(=O)N[C@@H](CC(C)C)C(=O)N[C@@H](CO)C(=O)N1CCC[C@H]1C(N)=O` [Ac-Thr-Ser-Phe-Ala-Lys-Tyr-Trp-Asn-Dha-Leu-Ser-Pro-NH2]: the ring closure, isolated yield was 24%.

As to `C=C(NC(=O)[C@H](Cc1c[nH]c2ccccc12)NC(=O)[C@H](Cc1ccc(O)cc1)NC(=O)[C@H](CCC(N)=O)NC(=O)[C@H](CCCCNC(=S)S)NC(=O)[C@H](Cc1ccccc1)NC(=O)[C@H](CO)NC(=O)[C@@H](NC(C)=O)[C@@H](C)O)C(=O)N[C@@H](CC(C)C)C(=O)N[C@@H](CC(C)C)C(=O)N[C@@H](CO)C(=O)N[C@@H](CCCNC(=N)N)C(N)=O` [Ac-Thr-Ser-Phe-Lys-Gln-Tyr-Trp-Dha-Leu-Leu-Ser-Arg-NH2], the ring closure, isolated yield amounted to 46%.

On to `C=C(NC(=O)[C@H](C)NC(=O)[C@H](Cc1ccccc1)NC(=O)[C@H](CO)NC(=O)[C@H](CCCCNC(=S)S)NC(C)=O)C(=O)N[C@@H](Cc1ccc(O)cc1)C(=O)N[C@@H](Cc1c[nH]c2ccccc12)C(=O)N[C@@H](CC(N)=O)C(=O)N[C@@H](CC(C)C)C(=O)N[C@@H](CC(C)C)C(=O)N[C@@H](CO)C(=O)N1CCC[C@H]1C(N)=O` [Ac-Lys-Ser-Phe-Ala-Dha-Tyr-Trp-Asn-Leu-Leu-Ser-Pro-NH2], for which the ring closure, isolated yield turned out to be 28%.

Turning to `C=C(NC(=O)[C@H](Cc1c[nH]c2ccccc12)NC(=O)[C@H](Cc1ccc(O)cc1)NC(=O)[C@H](CCC(=O)O)NC(=O)[C@H](CCCCNC(=S)S)NC(=O)[C@H](Cc1ccccc1)NC(=O)[C@H](CO)NC(=O)[C@@H](NC(C)=O)[C@@H](C)O)C(=O)N[C@@H](CC(C)C)C(=O)N[C@@H](CC(C)C)C(=O)N[C@@H](CO)C(=O)N1CCC[C@H]1C(N)=O` [Ac-Thr-Ser-Phe-Lys-Glu-Tyr-Trp-Dha-Leu-Leu-Ser-Pro-NH2], the ring closure, isolated yield came to 42%.

For `C=C(NC(=O)[C@H](CCC(=O)O)NC(=O)[C@H](C)NC(=O)[C@H](Cc1ccccc1)NC(=O)[C@H](CCCCNC(=S)S)NC(=O)[C@@H](NC(C)=O)[C@@H](C)O)C(=O)N[C@@H](Cc1c[nH]c2ccccc12)C(=O)N[C@@H](CC(N)=O)C(=O)N[C@@H](CC(C)C)C(=O)N[C@@H](CC(C)C)C(=O)N[C@@H](CO)C(=O)N1CCC[C@H]1C(N)=O` [Ac-Thr-Lys-Phe-Ala-Glu-Dha-Trp-Asn-Leu-Leu-Ser-Pro-NH2], the ring closure, isolated yield stood at 34%.
